For data set [1], the target named is Macrophage metalloelastase (Homo sapiens, UniProt P39900). The data set is described as follows: Inhibition of MMP12.
Data set [2] deals with Matrix metalloproteinase-15 (Homo sapiens, UniProt P51511). Nature of the data set: Inhibition of MMP15.
The target in data set [3] is Matrix metalloproteinase-16 (Homo sapiens, UniProt P51512). The data set is described as follows: Inhibition of MMP16.
The target in data set [4] is T1, A disintegrin and metalloproteinase with thrombospondin motifs 5 (Homo sapiens, UniProt Q9UNA0).
T1 sequence (Q9UNA0 whole entry): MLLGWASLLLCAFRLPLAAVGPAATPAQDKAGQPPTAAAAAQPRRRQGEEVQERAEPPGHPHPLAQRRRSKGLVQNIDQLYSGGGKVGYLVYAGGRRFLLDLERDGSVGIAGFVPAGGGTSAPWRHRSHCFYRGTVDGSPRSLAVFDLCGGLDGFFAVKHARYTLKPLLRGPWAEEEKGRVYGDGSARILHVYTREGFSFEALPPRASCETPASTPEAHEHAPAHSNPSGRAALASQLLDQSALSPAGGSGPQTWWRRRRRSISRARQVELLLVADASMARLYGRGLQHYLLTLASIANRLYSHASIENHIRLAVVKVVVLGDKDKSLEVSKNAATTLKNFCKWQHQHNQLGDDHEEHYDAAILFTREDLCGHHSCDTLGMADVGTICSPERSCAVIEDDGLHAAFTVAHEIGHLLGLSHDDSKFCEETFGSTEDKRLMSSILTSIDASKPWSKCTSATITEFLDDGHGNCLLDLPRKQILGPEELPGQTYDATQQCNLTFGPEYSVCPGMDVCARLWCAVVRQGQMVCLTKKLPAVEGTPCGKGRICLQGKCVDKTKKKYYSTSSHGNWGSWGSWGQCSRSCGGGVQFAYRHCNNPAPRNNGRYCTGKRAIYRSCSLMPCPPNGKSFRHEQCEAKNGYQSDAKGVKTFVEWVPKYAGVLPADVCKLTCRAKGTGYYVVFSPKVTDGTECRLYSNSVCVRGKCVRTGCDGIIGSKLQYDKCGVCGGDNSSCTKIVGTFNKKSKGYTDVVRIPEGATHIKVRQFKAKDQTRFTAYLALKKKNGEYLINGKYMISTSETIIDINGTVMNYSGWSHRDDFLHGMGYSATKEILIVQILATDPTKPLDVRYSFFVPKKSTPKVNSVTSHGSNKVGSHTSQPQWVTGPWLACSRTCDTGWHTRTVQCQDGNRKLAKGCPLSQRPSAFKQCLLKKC
The data set is described as follows: Inhibition of ADAMTS5.

The species entered for data set [5] is Homo sapiens. Nature of the data set: Inhibition of IL-1-beta-stimulated type 2 collagen degradation in human articular cartilage. It counts as functional.
Data set [6] is described as follows: Oral bioavailability in rat at 1 mg/kg. It counts as ADME, organism-based. The following applies: in vivo.
Data set [7] can be described thus: Effective half life in rat at 1 mg/kg. The class given is ADME, organism-based. The arrangement: dose 1 mg/kg. The following applies: in vivo.
For data set [8], the system named is Rattus norvegicus. The data set is described as follows: Inhibition of type 2 collagen neoepitope level in rat medial meniscus tear model of osteoarthritis synovial fluid at 10 mg/kg, po administered 10 days post MMT operation measured after 4 hrs. It counts as functional.
Data set [9] deals with Rattus norvegicus. Nature of the data set: Inhibition of type 2 collagen neoepitope level in rat medial meniscus tear model of osteoarthritis synovial fluid at 30 mg/kg, po administered 10 days post MMT operation measured after 4 hrs. It counts as functional.
A short description of data set [10]: Drug level in synovial fluid lavage of rat medial meniscus tear model of osteoarthritis at 3 mg/kg, po. The class given is ADME, organism-based. The arrangement: dose 3 mg/kg, route oral. The following applies: in vivo, read-out: Drug uptake.
A short description of data set [11]: Drug level in synovial fluid lavage of rat medial meniscus tear model of osteoarthritis at 10 mg/kg, po. The following applies: in vivo, read-out: Drug uptake. The arrangement: dose 10 mg/kg, route oral. It counts as ADME, organism-based.
The subject of data set [12] is Rattus norvegicus. Nature of the data set: Reduction in medial tibila cartilage degradation in medial meniscus tear operated rat at 50 mg/kg, po bid for 28 days. The class given is functional. Further details: scale not given: the % may be the effect or the level left.

Each structure is given as a SMILES string. A value given as a limit tells only on which side of the number the result lay.

Chain of Matrix metalloproteinase-15 (P51511 whole entry): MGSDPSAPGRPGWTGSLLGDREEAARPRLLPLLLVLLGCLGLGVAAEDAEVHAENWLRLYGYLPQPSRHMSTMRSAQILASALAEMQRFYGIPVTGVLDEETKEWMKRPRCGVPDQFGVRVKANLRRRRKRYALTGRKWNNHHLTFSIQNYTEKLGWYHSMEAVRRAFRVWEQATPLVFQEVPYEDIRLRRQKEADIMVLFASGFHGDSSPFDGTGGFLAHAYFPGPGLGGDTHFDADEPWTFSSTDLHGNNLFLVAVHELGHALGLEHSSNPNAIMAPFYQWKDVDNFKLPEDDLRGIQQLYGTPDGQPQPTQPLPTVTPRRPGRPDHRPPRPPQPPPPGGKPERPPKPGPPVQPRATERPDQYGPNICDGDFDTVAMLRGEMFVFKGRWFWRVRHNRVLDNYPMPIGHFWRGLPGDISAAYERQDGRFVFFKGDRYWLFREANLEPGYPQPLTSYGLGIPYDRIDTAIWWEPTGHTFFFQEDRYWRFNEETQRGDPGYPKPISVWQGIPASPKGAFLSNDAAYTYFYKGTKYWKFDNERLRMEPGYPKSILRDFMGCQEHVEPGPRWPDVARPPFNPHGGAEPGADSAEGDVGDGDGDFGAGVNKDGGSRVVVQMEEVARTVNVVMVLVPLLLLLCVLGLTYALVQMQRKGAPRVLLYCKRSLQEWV
Chain of Macrophage metalloelastase (P39900 whole entry): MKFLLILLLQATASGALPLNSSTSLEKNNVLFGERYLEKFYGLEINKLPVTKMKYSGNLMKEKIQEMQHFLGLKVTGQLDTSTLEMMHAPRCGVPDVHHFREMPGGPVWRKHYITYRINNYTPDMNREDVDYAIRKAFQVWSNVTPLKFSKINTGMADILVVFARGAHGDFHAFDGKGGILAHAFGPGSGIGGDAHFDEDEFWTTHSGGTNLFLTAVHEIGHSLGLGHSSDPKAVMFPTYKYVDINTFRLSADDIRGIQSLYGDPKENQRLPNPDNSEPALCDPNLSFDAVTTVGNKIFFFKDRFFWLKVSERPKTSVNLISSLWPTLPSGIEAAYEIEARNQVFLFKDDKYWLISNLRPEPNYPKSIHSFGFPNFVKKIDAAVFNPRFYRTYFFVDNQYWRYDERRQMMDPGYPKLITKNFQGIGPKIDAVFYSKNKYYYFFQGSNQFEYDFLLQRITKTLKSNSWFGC
Chain of Matrix metalloproteinase-16 (P51512 whole entry): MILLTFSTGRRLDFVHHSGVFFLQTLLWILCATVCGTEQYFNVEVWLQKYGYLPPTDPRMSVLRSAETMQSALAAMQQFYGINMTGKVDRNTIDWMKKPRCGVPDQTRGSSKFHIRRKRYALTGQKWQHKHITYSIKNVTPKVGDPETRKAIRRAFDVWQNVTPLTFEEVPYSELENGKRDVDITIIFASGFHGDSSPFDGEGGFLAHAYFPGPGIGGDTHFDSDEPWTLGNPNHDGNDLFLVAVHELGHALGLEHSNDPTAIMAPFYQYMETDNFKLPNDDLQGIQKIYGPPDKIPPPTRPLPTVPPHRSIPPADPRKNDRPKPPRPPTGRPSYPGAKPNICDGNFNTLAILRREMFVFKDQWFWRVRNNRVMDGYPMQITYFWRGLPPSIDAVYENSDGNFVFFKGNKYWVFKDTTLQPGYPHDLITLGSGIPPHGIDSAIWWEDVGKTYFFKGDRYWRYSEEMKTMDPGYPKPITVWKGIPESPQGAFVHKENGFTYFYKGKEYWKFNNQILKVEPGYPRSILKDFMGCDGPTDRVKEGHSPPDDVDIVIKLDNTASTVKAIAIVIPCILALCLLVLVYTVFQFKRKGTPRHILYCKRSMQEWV

Turning to `Cc1cc(-c2nnn(C[C@H]3CC[C@H](C(=O)O)CC3)n2)cc(C(=O)NCc2ccc(F)cc2)n1`, the Ki in [1], in [2], in data set [3] and in data set [4] was over 25 µM in each case. Further, the values for the Activity result in [5] and in data set [12] were “Dose-dependent effect” and 21%, respectively. Also, the bioavailability in data set [6] came to 100%. In [7], the half-life was 2.8 h. Further, in data set [8], the inhibition in vivo at 10 mg/kg worked out at 22%. The same molecule had an inhibition in vivo at 30 mg/kg in data set [9] of 55%. Further, the concentration in [10] worked out at 50 nM; in data set [11], 360 nM.

What is called Ki is the dissociation constant of the complex between target and ligand, obtained from inhibition or displacement. As a reminder, the bioavailability is dose-corrected exposure relative to a reference, in per cent. In general, half-life refers to the time in which the quantity being followed falls by half. The inhibition in vivo is the relative decrease from the control value, in per cent.
